Reference: article PMC3098207 (Malaria Journal, 2011)
Where two headings read alike, the source gives them in different places. Each block holds one compound with its values, some of them ahead of it.

Columns and labels:
[1] = parameters: method as in McGready et al 5; details: pregnant women (2nd or 3rd trimester), adjusted for median weight 50 kg, ref McGready et al 5, cited from earlier work
[2] = parameters: method as in Newton et al 31; details: oral AS, acute falciparum malaria patients, 95% CI 1.02 - 1.64; ref Newton et al 31; cited from earlier work
[3] = parameters: method as in Teja-Isavadharm et al 30; details: oral AS, non-pregnant patients with falciparum malaria, non-compartmental, range 0.70 - 2.70 L/kg; ref Teja-Isavadharm et al 30; cited from earlier work
[4] = Population pharmacokinetics of oral AS and its metabolite DHA in pregnant and non-pregnant women (NONMEM parent-metabolite model); assay type: in vivo, human
Excerpt: Women presenting for prenatal care at the clinic were screened for study eligibility if they were between 18 and 40 years of age and at less than 22 weeks gestation, determined by last menstrual period. Women confirmed by ultrasound to be between 8 to 21 weeks gestation (inclusive) were invited to be participants in the study. Women were asked to return between 22 to 26 weeks gestation for screening and enrollment; women not enrolled at 22 to 26 weeks were screened again at 32 to 36 weeks gestation. A cohort of non-pregnant female controls was also enrolled. At the time of enrollment, both the pregnant and non-pregnant subjects had asymptomatic Plasmodium falciparum parasitaemia, with a parasite density between 200 and 300,000 parasite/μL, were HIV seronegative, and were without anaemia (haematocrit >30%) or other major medical problems (e.g. chronic hypertension, diabetes, etc.). Plasmodium falciparum parasite density was assessed though Giemsa staining of thick and thin blood films; slide-positive infections were later PCR-confirmed using DNA extracted from dried blood spots [8].
Blood sampling schedule and sample handling were uniformly applied for pregnant, postpartum, and control subjects. Blood samples were collected in pre-chilled tubes containing potassium oxalate/sodium fluoride. Following collection, tubes were placed on wet ice; within 5 minutes of collection, samples were centrifuged. Immediately following centrifugation, plasma was removed from the cells and transferred into cryovials. The plasma samples were transferred to liquid nitrogen until they could be frozen at or below -80°C in a laboratory freezer; samples were later shipped on dry ice to the Clinical Pharmacokinetics Laboratory at the College of Pharmacy, University of Iowa, where they were stored at -80°C until drug analysis was performed.
The reconstituted extracts were chromatographed isocratically. Mass spectroscopy in positive ion mode was used to detect and quantify the compounds.
Nonlinear mixed effects model building was conducted using NONMEM software version 7 (ICON Development Solutions, Ellicott City, MD) [10] implemented on a Windows XP operating system (Microsoft Corporation, Seattle, WA) with a G95 Fortran compiler (Free Software Foundation, Boston, MA). Monte Carlo importance sampling expectation maximization with interaction (IMP INTER) estimation method was used to fit models. Pdx-Pop 4.0 (ICON Development Solutions, Ellicott City, MD) and Xpose version 4.1.0 (Uppsala University, Uppsala, Sweden) [11] were used in processing NONMEM 7 output. Plots were generated with TIBCO Spotfire S+ version 8.1 (TIBCO Software Inc., Palo Alto, CA) and R version 2.10.0 (Free Software Foundation, Boston, MA).
Simultaneous models were implemented using ADVAN 5.

[5] = weak acid; cited from earlier work
[6] = free acid form of AS; cited from earlier work
[7] = interindividual variability, final model

RV - variance (residual variability), bootstrap mean (95% CI) ([4]; additive model for log-transformed plasma concentrations, 1000 bootstrap runs): 0.174 (0.129-0.226)
RV - variance (residual variability), estimate ([4]; additive model for log-transformed plasma concentrations, final model): 0.174
CLM/F apparent clearance of DHA, bootstrap mean (95% CI) ([4]; after 200 mg oral AS, 1000 bootstrap runs, value without the pregnancy covariate (non-pregnant)): 64.2 (55.1-75.2) L/h
DHA volume of distribution adjusted for the median weight of the pregnancy and control groups ([4]; after 200 mg oral AS, current analysis): 1.58 L/kg
CLM/F: apparent clearance of DHA, estimate ([4]; after 200 mg oral AS, final model NONMEM estimate, value without the pregnancy covariate (non-pregnant)): 64.0 L/h
Vd/F ([4]; female, human, plasma, po, 200 mg, after 200 mg oral AS, 1000 bootstrap runs, read-out: V3/F apparent volume of distribution of DHA, bootstrap mean (95% CI)): 92.1 L
Vd/F ([4]; female, human, plasma, po, 200 mg, after 200 mg oral AS, final model NONMEM estimate, read-out: V3/F: apparent volume of distribution of DHA, estimate): 91.4 L
half-life ([4]; female, human, plasma, po, 200 mg, after 200 mg oral AS, non-pregnant, read-out: DHA elimination half-life, non-pregnant subjects): 59 min
half-life ([4]; female, human, plasma, po, 200 mg, after 200 mg oral AS, pregnant, read-out: DHA elimination half-life, pregnant subjects): 45 min
IIV - CLM/F, variance, bootstrap mean (95% CI) ([4]; interindividual variability, 1000 bootstrap runs): 0.0711 (0.031-0.113)
IIV - CLM/F, variance (%CV), estimate [4, 7]: 0.0802 (28.3)
IIV - V3/F, variance (%CV), estimate [4, 7]: 0.0790 (28.1)
PREG on CLM/F, bootstrap mean (95% CI) ([4]; pregnant vs non-pregnant women, 1000 bootstrap runs): 0.427 (0.197-0.723)
PREG on CLM/F: factor of proportional increase in CLM/F associated with pregnancy, estimate ([4]; pregnant vs non-pregnant women, final model NONMEM estimate): 0.423
Pregnancy-associated trend towards increased DHA volume of distribution ([4]; pregnant vs non-pregnant, significant (p < 0.05) only in first forward addition step, not retained in final model): approximately 37%
DHA clearance in pregnant patients, estimate of the present analysis ([4]; pregnant, after 200 mg oral AS): 91 L/h
Compound: C[C@H]1[C@@H](O)O[C@@H]2O[C@@]3(C)CC[C@H]4[C@H](C)CC[C@@H]1[C@@]24OO3 [DHA, dihydroartemisinin]
Oral DHA clearance ([1]; oral AS 4 mg/kg/day for three days with atovaquone and proguanil, 95% CI 60 - 117 L/h): 88.5 L/h
DHA volume of distribution ([1]; oral AS 4 mg/kg/day, 95% CI 57 - 406 L): 231.5 L
DHA volume of distribution [2]: 1.33 L/kg
DHA volume of distribution [3]: 1.33 L/kg

IIV - V2/F, variance (%CV), estimate ([4]; female, human, in vivo): 0.604 (77.7)
IIV - V2/F, variance, bootstrap mean (95% CI) ([4]; female, human, in vivo): 0.568 (0.253-0.942)
half-life ([4]; female, human, in vivo, po, 200 mg, AS elimination half-life): ~9.1 min
CL/F apparent clearance of AS, bootstrap mean (95% CI) ([4]; human, in vivo, po, 200 mg): 904 (788-1045) L/h
CL/F: apparent clearance of AS, estimate ([4]; human, in vivo, po, 200 mg): 895 L/h
Compound: C[C@H]1[C@H](OC(=O)CCC(=O)O)O[C@@H]2O[C@@]3(C)CC[C@H]4[C@H](C)CC[C@@H]1[C@@]24OO3 [AS, artesunate]
pKa [5]: 4.6
Solubility of the free acid form [6]: 168.2 µg/mL
